These results are taken from DBAASP.

What all share (assay): ≥ marks a high value that may be exact or a test limit, other limits are often not marked, values filed in µg/mL are converted to µM
Test [1] relates to Salmonella enterica subsp. enterica serovar Typhi CMCC 50071.
In test [2] the test system is Streptococcus pneumoniae ATCC 49619.
The test system of test [3] is Shigella dysenteriae CMCC 51252.
Test [4] has as its system Micrococcus luteus CMCC 28001.
Test [5] relates to Escherichia coli ATCC 25922.
In test [6] the test system is Ralstonia solanacearum ATCC 33192.
Test [7] has as its system Staphylococcus aureus ATCC 25923.
Test [8] deals with Bacillus subtilis CMCC 63501.
Test [9] relates to Bacillus subtilis KCTC 1998.
The test system of test [10] is Aspergillus flavus KCTC 6905.
Test [11] concerns Trichophyton rubrum KCTC 6345.
Test [12] relates to Fusarium verticillioides KCTC 6149.
For test [13], the system named is Candida tropicalis KCTC 7221.
Another test relates to Staphylococcus aureus.
Test [14] has as its system Candida albicans KCTC 7270.
Test [15] has as its system Pseudomonas aeruginosa ATCC 15692.
For test [16], the system named is Fusarium solani KCTC 6326.
The test system of test [17] is Candida krusei CCARM 14017.
For test [18], the system named is Aspergillus fumigatus KCTC 6145.
The test system of a further test is Pseudomonas aeruginosa.
Test [19] has as its system Candida parapsilosis CCARM 14016.
The test system of test [20] is Fusarium oxysporum KCTC 16909.
For test [21], the system named is Trichosporon beigelii KCTC 7707.
For test [22], the system named is Salmonella typhimurium CCARM 8003.
Test [23] concerns Acinetobacter baumannii CCARM 12005.
Test [24] deals with Acinetobacter baumannii CCARM 12036.
Test [25] has as its system Pseudomonas aeruginosa CCARM 2095.
The test system of test [26] is Staphylococcus aureus KCTC 1621.
In test [27] the test system is Escherichia coli CCARM 1229.
The subject of test [28] is Staphylococcus aureus CCARM 3126.
In test [29] the test system is Acinetobacter baumannii CCARM 12037.
Test [30] deals with Bacillus subtilis KCTC 3068.
Test [31] deals with Salmonella typhimurium CCARM 8007.
The subject of test [32] is Escherichia coli CCARM 1238.
Test [33] concerns Escherichia coli KCTC 1682.
In test [34] the test system is Staphylococcus aureus CCARM 3108.
Test [35] relates to Enterococcus faecalis KCTC 2011.
Test [36] has as its system Salmonella typhimurium KCTC 1926.
The test system of test [37] is Staphylococcus aureus CCARM 3089.
Test [38] relates to Acinetobacter baumannii CCARM 12035.
The subject of test [39] is Pseudomonas aeruginosa KCTC 1637.
The subject of test [40] is Pseudomonas aeruginosa CCARM 2002.
The subject of test [41] is Pseudomonas aeruginosa CCARM 2163.
In test [42] the test system is Salmonella typhimurium CCARM 8009.
The subject of test [43] is Bacillus subtilis ATCC 13933.
The subject of test [44] is Pseudomonas aeruginosa PAO1.
Test [45] concerns Escherichia coli ATCC 700928.
The subject of test [46] is Klebsiella pneumoniae NCTC 13368.
The test system of test [47] is Escherichia coli NCTC 12923.
In test [48] the test system is Acinetobacter baumannii ATCC 17978.
Test [49] has as its system Staphylococcus aureus USA 300.
Test [50] concerns Candida albicans ATCC 90028.
Test [51] deals with Staphylococcus aureus ATCC 9144.

Values after ≈ are worked out from the molar mass of the structure shown.

As to `CC[C@H](C)[C@H](NC(=O)[C@H](Cc1c[nH]c2ccccc12)NC(=O)[C@@H](N)CCSC)C(=O)N[C@H](C(=O)N[C@@H](CC(N)=O)C(=O)NCC(=O)NCC(=O)N[C@H](C(=O)N[C@@H](C)C(=O)N[C@@H](CC(N)=O)C(=O)N[C@@H](Cc1c[nH]c2ccccc12)C(=O)N[C@@H](Cc1ccc(O)cc1)C(=O)N[C@@H](Cc1ccccc1)C(=O)N[C@H](C(=O)N[C@@H](CC(C)C)C(=O)N[C@@H](C)C(=O)N[C@@H](CCCN=C(N)N)C(=O)O)C(C)C)C(C)C)[C@@H](C)O` [MWITNGGVANWYFVLAR], the minimal inhibitory concentration (MIC) (commonly the smallest concentration in the dilution series that meets the test's criterion for growth inhibition) in test [1] is 3.13 µM (≈ 6.25 µg/mL); in test [2], 6.26 µM (≈ 12.5 µg/mL); in test [3] it was 1.57 µM (≈ 3.14 µg/mL); in test [4], 12.5 µM (≈ 25 µg/mL); in [5] it was 6.26 µM (≈ 12.5 µg/mL); in test [6] it was 6.26 µM (≈ 12.5 µg/mL). Besides, the MIC in [7] turned out to be 12.5 µM (≈ 25 µg/mL); in test [8], 6.26 µM (≈ 12.5 µg/mL).

Turning to `CC[C@H](C)[C@H](NC(=O)[C@H](CC(C)C)NC(=O)[C@H](CCCCN)NC(=O)[C@H](CCCCN)NC(=O)[C@H](CC(C)C)NC(=O)[C@H](CCCN=C(N)N)NC(=O)[C@H](CCCCN)NC(=O)[C@@H](N)Cc1ccccc1)C(=O)N[C@@H](CO)C(=O)N[C@@H](Cc1c[nH]c2ccccc12)C(=O)N[C@H](C(=O)N[C@@H](CCCCN)C(=O)N[C@@H](CCCN=C(N)N)C(=O)N[C@@H](CCCCN)C(=O)N[C@@H](CCCN=C(N)N)C(=O)N[C@@H](CCC(N)=O)C(=O)N[C@@H](CCC(N)=O)C(N)=O)[C@@H](C)CC` [FKRLKKLISWIKRKRQQ], the MIC was 2 µM (≈ 4.51 µg/mL) in [9]; 2.83 µM (≈ 6.38 µg/mL) in test [10]; 1.41 µM (≈ 3.19 µg/mL) in [11]; 1.41 µM (≈ 3.19 µg/mL) in [12]; 4 µM (≈ 9.02 µg/mL) in [13]; 1.41 µM (≈ 3.19 µg/mL) with Staphylococcus aureus. Besides, the MIC in test [14] came out at 16 µM (≈ 36.1 µg/mL); in [15] it was 2 µM (≈ 4.51 µg/mL); in test [16] it was 1 µM (≈ 2.26 µg/mL); in test [17], 8 µM (≈ 18 µg/mL); in test [18] it was 2.83 µM (≈ 6.38 µg/mL); with Pseudomonas aeruginosa, 1.41 µM (≈ 3.19 µg/mL). Also, the MIC came out at 1 µM (≈ 2.26 µg/mL) in test [5]; 2 µM (≈ 4.51 µg/mL) in test [7]; 16 µM (≈ 36.1 µg/mL) in [19]; 1.41 µM (≈ 3.19 µg/mL) in test [20]; 1 µM (≈ 2.26 µg/mL) in test [21].

`CC[C@H](C)[C@H](NC(=O)[C@H](CCCCN)NC(=O)[C@H](Cc1c[nH]c2ccccc12)NC(=O)[C@@H](N)CCCN=C(N)N)C(=O)N[C@@H](Cc1ccccc1)C(=O)N[C@@H](CCCCN)C(=O)N[C@@H](CCCCN)C(=O)N[C@H](C(=O)N1CCC[C@H]1C(=O)N[C@@H](CCCCN)C(=O)N[C@@H](Cc1ccccc1)C(=O)N[C@@H](CC(C)C)C(=O)N[C@@H](Cc1cnc[nH]1)C(=O)N[C@@H](CO)C(=O)N[C@@H](C)C(=O)N[C@@H](CCCCN)C(=O)N[C@@H](CCCCN)C(=O)N[C@@H](Cc1ccccc1)C(N)=O)[C@@H](C)CC` [RWKIFKKIPKFLHSAKKF]: the MIC turned out to be 4 µM (≈ 9.21 µg/mL) in [22]; 2 µM (≈ 4.6 µg/mL) in [23]; 2 µM (≈ 4.6 µg/mL) in test [24]; 2 µM (≈ 4.6 µg/mL) in [25]; 4 µM (≈ 9.21 µg/mL) in [26]; 4 µM (≈ 9.21 µg/mL) in [27]. The MIC is 8 µM (≈ 18.4 µg/mL) in test [28]; 2 µM (≈ 4.6 µg/mL) in test [29]; 4 µM (≈ 9.21 µg/mL) in test [30]; 2 µM (≈ 4.6 µg/mL) in test [31]; 2 µM (≈ 4.6 µg/mL) in [32]; 2 µM (≈ 4.6 µg/mL) in test [33]. The MIC in test [34] was found to be 4 µM (≈ 9.21 µg/mL); in test [35], 16 µM (≈ 36.8 µg/mL); in [36], 2 µM (≈ 4.6 µg/mL); in test [37], 8 µM (≈ 18.4 µg/mL); in test [38] it was 2 µM (≈ 4.6 µg/mL); in test [39] it was 4 µM (≈ 9.21 µg/mL). The MIC in test [40], in [41] and in test [42] was 2 µM (≈ 4.6 µg/mL) each time.

With `CC[C@H](C)[C@H](NC(=O)CNC(=O)[C@@H](N)CCCCN)C(=O)N[C@@H](CCCN=C(N)N)C(=O)NCC(=O)N[C@@H](Cc1ccc(O)cc1)C(=O)N[C@@H](CCCCN)C(=O)NCC(=O)NCC(=O)N[C@@H](Cc1ccc(O)cc1)C(=O)N[C@@H](CCCCN)C(=O)NCC(=O)N[C@@H](C)C(=O)N[C@@H](Cc1ccccc1)C(=O)N[C@@H](CCCCN)C(=O)N[C@@H](CCC(N)=O)C(=O)N[C@H](C(=O)N[C@@H](CCCCN)C(=O)N[C@@H](Cc1ccc(O)cc1)C(=O)O)[C@@H](C)O` [KGIRGYKGGYKGAFKQTKY], the MIC was ≥ 55.8 µM in test [43]; > 59.5 µM in test [44]; ≥ 55.8 µM in [45]; ≥ 59.5 µM in test [46]; ≥ 59.5 µM in test [47]; ≥ 59.5 µM in test [48]. The results for the MIC in test [49], in [50] and in [51] were ≥ 59.5 µM, 2.2 µM (≈ 4.73 µg/mL) and ≥ 59.5 µM, respectively.
